Consider eight compounds from PubChem BioAssay (NCI).

Test systems include NCI-H226 lung; SF-295 CNS; BT-549 breast; UO-31 renal; OVCAR-8 ovarian; HCT-15 colon; COLO 205 colon; NCI/ADR-RES ovarian; SNB-75 CNS; LOX IMVI melanoma; OVCAR-3 ovarian; A498 renal; A549 NSCLC; CCRF-CEM leukemia; ACHN renal; 786-0 renal; UACC-62 melanoma; MDA-MB-435; MALME-3M melanoma; NCI-H522 lung.
Holding throughout (experiment): inhibition of tumour cell growth, NCI panel, 48 h

Each structure is given as a SMILES string.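 Protocol summary: plate cells (96-well), add compound at 5 concentrations, incubate 48 h, interpolate endpoints linearly. TGI: total growth inhibition.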

On to `COc1cccc(-c2[nH]c3cc4c(cc3c(=O)c2C(=O)O)OCO4)c1`, for which the TGI in the test with NCI-H226 lung was more than 100 µM; in the test on SF-295 CNS it was 79.4 µM; with BT-549 breast, more than 100 µM; in the test with UO-31 renal it was more than 100 µM; in the test on OVCAR-8 ovarian, 65.9 µM; in the test on HCT-15 colon it was more than 100 µM. For the same compound, the TGI was 74.9 µM with COLO 205 colon; 47.3 µM in the test with NCI/ADR-RES ovarian; more than 100 µM in the test on SNB-75 CNS; more than 100 µM in the test on LOX IMVI melanoma; more than 100 µM in the test with OVCAR-3 ovarian; 91.6 µM with A498 renal. Further, the TGI in the test with A549 NSCLC, with CCRF-CEM leukemia, in the test with ACHN renal, with 786-0 renal, in the test on UACC-62 melanoma and in the test on MDA-MB-435 was more than 100 µM each time.

As to `CO[C@]12C[C@@H](CNC(=O)c3cc(Br)c[nH]3)O[C@H]1NC(=O)N2`, the TGI with NCI-H226 lung, in the test with SF-295 CNS, in the test on BT-549 breast, with MALME-3M melanoma, in the test with NCI-H522 lung and in the test with UO-31 renal was more than 100 µM throughout. The TGI in the test with OVCAR-8 ovarian, with HCT-15 colon, in the test with COLO 205 colon, in the test with NCI/ADR-RES ovarian, in the test on SNB-75 CNS and with OVCAR-3 ovarian was more than 100 µM in each case. The TGI with A498 renal, in the test with A549 NSCLC, in the test with CCRF-CEM leukemia, in the test with ACHN renal, in the test with 786-0 renal and in the test with UACC-62 melanoma was more than 100 µM in each case. Also, the TGI in the test on MDA-MB-435 is more than 100 µM.

As to `Cn1cnnc1SC(F)(F)c1nc2ccccc2o1`, the TGI in the test with NCI-H226 lung, with SF-295 CNS, in the test with BT-549 breast, with MALME-3M melanoma, in the test on NCI-H522 lung and with UO-31 renal was more than 100 µM in each case. Besides, the TGI in the test on OVCAR-8 ovarian, in the test on HCT-15 colon, in the test on COLO 205 colon, with NCI/ADR-RES ovarian, in the test on SNB-75 CNS and in the test with OVCAR-3 ovarian was more than 100 µM in each case. In addition, the TGI with A498 renal, with A549 NSCLC, in the test on CCRF-CEM leukemia, in the test with ACHN renal, with 786-0 renal and in the test with UACC-62 melanoma was more than 100 µM throughout. Moreover, in the test on MDA-MB-435, the TGI is more than 100 µM.

As to `Clc1cccc2[nH]ncc12`, the TGI with NCI-H226 lung, with SF-295 CNS, in the test on BT-549 breast, with NCI-H522 lung, in the test on OVCAR-8 ovarian and with HCT-15 colon was more than 100 µM in each case. Also, the TGI in the test on COLO 205 colon, in the test with NCI/ADR-RES ovarian, with SNB-75 CNS, with LOX IMVI melanoma, in the test with OVCAR-3 ovarian and with A498 renal was more than 100 µM throughout. Besides, the TGI with A549 NSCLC, in the test with CCRF-CEM leukemia, in the test with ACHN renal, in the test on 786-0 renal, in the test with UACC-62 melanoma and with MDA-MB-435 was more than 100 µM throughout.

Regarding `CON(C)C(=O)C(C)NC(=O)OC(C)(C)C` (stereo not given), the TGI in the test with NCI-H226 lung, in the test on SF-295 CNS, in the test with BT-549 breast, in the test on MALME-3M melanoma, in the test with UO-31 renal and in the test with OVCAR-8 ovarian was more than 100 µM each time. In addition, the TGI in the test on HCT-15 colon, in the test on COLO 205 colon, in the test on NCI/ADR-RES ovarian, in the test on SNB-75 CNS, in the test with OVCAR-3 ovarian and with A498 renal was more than 100 µM in each case. Further, the TGI with A549 NSCLC, in the test on CCRF-CEM leukemia, with ACHN renal, in the test with 786-0 renal, in the test with UACC-62 melanoma and in the test with MDA-MB-435 was more than 100 µM in each case.

For the compound `COC(=O)[C@]1(C)CCCC2(C)C3=C(CCC21)CC1(CC3)SCCS1` (stereo not given in full), the TGI with BT-549 breast, in the test on MALME-3M melanoma, in the test on NCI-H522 lung, in the test with OVCAR-8 ovarian, with HCT-15 colon and in the test on COLO 205 colon was more than 10 µM throughout. Moreover, the TGI in the test with NCI/ADR-RES ovarian, with SNB-75 CNS, in the test with OVCAR-3 ovarian, in the test on A498 renal, in the test with A549 NSCLC and in the test with CCRF-CEM leukemia was more than 10 µM each time. Besides, the TGI in the test on ACHN renal, in the test on 786-0 renal, with UACC-62 melanoma and in the test on MDA-MB-435 was more than 10 µM in each case.

As for `CC(C)CCCC(C)[C@H]1CCC2[C@@H]3CCC4Cc5nc6c(nc5C[C@]4(C)C3CC[C@@]21C)CC1CC[C@@H]2C(CC[C@@]3(C)C2CC[C@@H]3O)[C@@]1(C)C6` (stereo not given in full), the TGI with NCI-H226 lung, in the test with SF-295 CNS, in the test on BT-549 breast, in the test with MALME-3M melanoma, in the test on UO-31 renal and with OVCAR-8 ovarian was more than 100 µM each time. Besides, the TGI in the test with HCT-15 colon, with COLO 205 colon, in the test with NCI/ADR-RES ovarian, in the test on SNB-75 CNS, with LOX IMVI melanoma and in the test with OVCAR-3 ovarian was more than 100 µM each time. The TGI in the test on A498 renal, in the test with A549 NSCLC, with CCRF-CEM leukemia, with ACHN renal, in the test on 786-0 renal and with UACC-62 melanoma was more than 100 µM throughout. Further, the TGI with MDA-MB-435 was more than 100 µM.

On to `CCOP(=O)(/C=C\n1ccc(=O)[nH]c1=O)OCC`, for which the TGI in the test on NCI-H226 lung, in the test on SF-295 CNS, with BT-549 breast, in the test on NCI-H522 lung, in the test on OVCAR-8 ovarian and in the test with HCT-15 colon was more than 100 µM each time. Further, the TGI in the test on COLO 205 colon, with NCI/ADR-RES ovarian, with SNB-75 CNS, in the test on LOX IMVI melanoma, with OVCAR-3 ovarian and with A498 renal was more than 100 µM throughout. Also, the TGI with A549 NSCLC, with CCRF-CEM leukemia, in the test with ACHN renal, in the test on 786-0 renal, in the test with UACC-62 melanoma and with MDA-MB-435 was more than 100 µM in each case.
